Test results reported in ChEMBL document CHEMBL6127039, “An update on small molecule compounds targeting synthetic lethality for cancer therapy” (Eur J Med Chem, 2024).
pIC50, pKi: −log10 of the molar value. Blank lines part the entries; values can stand above or below the compound they belong to.

Assays:
[1] = Inhibition of DNA-PK (unknown origin) expressed in human HeLa cells; format: cell-based
[2] = Antiproliferative activity against human HCT116-MTAP null cells assessed as reduction in cell growth incubated for 72 hrs by MTT assay; format: functional, cell-based
[3] = biological target: Protein arginine N-methyltransferase 5 (Homo sapiens, UniProt O14744); experiment: Binding affinity to PRMT5 (unknown origin) assessed as inhibition constant
Chain of Protein arginine N-methyltransferase 5 (O14744 whole entry): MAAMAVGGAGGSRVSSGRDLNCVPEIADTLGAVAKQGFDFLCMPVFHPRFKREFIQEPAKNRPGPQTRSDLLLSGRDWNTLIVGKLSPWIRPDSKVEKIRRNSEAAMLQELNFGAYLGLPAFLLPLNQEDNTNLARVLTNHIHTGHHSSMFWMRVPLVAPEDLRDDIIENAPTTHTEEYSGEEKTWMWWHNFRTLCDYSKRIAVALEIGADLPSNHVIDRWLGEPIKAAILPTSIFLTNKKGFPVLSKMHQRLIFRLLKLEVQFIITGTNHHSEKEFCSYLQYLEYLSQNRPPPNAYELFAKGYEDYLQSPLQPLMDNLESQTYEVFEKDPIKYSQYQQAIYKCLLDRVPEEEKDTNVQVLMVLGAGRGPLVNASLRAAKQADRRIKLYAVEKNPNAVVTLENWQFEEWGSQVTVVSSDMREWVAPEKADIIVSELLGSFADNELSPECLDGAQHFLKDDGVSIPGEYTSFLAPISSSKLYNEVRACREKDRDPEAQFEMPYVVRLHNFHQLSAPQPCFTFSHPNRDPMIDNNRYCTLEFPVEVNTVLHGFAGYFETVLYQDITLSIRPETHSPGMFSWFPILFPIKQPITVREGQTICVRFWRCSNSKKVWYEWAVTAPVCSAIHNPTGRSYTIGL

[4] = biological target: Serine/threonine-protein kinase ATR (Homo sapiens, UniProt Q13535); experiment: Inhibition of human recombinant ATR incubated for 40 mins by fluorescence based analysis
Chain of Serine/threonine-protein kinase ATR (Q13535 whole entry): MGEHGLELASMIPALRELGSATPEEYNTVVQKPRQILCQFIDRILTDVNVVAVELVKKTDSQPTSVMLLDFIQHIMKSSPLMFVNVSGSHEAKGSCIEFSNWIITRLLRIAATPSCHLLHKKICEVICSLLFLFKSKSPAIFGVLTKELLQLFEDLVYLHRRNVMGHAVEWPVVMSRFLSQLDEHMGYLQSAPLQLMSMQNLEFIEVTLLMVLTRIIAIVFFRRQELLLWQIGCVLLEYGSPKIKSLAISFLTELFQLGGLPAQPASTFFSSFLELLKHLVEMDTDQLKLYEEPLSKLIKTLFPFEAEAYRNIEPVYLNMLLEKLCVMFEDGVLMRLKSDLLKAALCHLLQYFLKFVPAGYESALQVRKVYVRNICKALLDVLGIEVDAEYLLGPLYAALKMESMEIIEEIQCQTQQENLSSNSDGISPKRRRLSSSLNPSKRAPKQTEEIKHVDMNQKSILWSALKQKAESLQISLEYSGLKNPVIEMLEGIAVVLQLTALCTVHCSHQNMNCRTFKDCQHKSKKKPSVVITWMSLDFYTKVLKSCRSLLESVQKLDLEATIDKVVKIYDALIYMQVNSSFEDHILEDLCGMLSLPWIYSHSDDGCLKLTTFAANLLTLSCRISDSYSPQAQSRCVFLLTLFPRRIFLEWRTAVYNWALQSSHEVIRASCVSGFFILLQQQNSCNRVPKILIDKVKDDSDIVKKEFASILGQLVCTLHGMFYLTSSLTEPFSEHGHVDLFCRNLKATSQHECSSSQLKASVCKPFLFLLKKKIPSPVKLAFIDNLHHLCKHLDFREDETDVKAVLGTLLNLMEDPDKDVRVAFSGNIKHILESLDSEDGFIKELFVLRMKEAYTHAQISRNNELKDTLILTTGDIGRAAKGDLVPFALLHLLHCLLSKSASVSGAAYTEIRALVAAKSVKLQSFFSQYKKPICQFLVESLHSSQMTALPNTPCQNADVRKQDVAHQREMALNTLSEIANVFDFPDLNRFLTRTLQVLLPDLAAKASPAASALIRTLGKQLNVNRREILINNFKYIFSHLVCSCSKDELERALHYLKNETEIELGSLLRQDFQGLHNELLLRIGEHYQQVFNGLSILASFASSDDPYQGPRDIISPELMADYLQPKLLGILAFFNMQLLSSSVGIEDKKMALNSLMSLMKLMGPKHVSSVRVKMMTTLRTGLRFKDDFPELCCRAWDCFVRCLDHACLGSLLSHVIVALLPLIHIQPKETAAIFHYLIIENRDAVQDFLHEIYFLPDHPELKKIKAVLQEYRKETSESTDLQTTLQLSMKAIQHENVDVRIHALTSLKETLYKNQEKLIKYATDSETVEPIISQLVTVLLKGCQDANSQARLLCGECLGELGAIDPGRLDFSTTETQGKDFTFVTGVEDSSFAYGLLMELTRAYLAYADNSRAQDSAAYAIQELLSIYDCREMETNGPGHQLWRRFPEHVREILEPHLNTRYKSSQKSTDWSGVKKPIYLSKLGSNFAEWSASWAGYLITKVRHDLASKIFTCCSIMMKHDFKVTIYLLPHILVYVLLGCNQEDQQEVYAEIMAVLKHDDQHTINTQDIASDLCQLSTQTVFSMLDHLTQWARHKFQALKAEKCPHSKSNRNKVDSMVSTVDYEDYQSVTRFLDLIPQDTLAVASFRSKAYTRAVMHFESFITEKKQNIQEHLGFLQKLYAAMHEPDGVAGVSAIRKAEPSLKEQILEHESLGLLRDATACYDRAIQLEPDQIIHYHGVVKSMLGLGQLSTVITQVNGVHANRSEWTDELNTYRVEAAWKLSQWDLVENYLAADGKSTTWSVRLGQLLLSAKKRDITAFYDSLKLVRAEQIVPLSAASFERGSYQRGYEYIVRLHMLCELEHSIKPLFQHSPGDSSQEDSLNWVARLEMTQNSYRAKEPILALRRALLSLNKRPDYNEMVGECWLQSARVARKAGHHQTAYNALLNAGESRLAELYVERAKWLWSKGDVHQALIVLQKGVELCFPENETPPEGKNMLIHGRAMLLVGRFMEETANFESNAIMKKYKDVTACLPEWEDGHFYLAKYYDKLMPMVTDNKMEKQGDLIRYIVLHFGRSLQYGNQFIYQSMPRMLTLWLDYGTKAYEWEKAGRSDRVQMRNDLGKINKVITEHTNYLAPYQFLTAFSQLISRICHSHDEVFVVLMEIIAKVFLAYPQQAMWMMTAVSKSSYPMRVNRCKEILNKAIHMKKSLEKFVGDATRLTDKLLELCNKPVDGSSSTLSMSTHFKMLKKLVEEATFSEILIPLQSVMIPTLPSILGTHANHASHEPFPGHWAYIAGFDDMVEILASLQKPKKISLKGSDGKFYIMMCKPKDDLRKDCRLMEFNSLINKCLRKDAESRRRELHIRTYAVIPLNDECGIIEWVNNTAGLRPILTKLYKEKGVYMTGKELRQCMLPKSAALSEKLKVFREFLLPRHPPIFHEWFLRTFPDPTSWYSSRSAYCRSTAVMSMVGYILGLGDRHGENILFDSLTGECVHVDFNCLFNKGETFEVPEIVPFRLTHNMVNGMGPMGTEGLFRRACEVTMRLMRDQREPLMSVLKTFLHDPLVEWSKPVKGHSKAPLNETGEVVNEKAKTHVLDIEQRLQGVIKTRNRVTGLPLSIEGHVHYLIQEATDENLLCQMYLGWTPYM

[5] = biological target: Poly [ADP-ribose] polymerase 1 (Homo sapiens, UniProt P09874); experiment: Inhibition of PARP-1 (unknown origin)
Chain of Poly [ADP-ribose] polymerase 1 (P09874 whole entry): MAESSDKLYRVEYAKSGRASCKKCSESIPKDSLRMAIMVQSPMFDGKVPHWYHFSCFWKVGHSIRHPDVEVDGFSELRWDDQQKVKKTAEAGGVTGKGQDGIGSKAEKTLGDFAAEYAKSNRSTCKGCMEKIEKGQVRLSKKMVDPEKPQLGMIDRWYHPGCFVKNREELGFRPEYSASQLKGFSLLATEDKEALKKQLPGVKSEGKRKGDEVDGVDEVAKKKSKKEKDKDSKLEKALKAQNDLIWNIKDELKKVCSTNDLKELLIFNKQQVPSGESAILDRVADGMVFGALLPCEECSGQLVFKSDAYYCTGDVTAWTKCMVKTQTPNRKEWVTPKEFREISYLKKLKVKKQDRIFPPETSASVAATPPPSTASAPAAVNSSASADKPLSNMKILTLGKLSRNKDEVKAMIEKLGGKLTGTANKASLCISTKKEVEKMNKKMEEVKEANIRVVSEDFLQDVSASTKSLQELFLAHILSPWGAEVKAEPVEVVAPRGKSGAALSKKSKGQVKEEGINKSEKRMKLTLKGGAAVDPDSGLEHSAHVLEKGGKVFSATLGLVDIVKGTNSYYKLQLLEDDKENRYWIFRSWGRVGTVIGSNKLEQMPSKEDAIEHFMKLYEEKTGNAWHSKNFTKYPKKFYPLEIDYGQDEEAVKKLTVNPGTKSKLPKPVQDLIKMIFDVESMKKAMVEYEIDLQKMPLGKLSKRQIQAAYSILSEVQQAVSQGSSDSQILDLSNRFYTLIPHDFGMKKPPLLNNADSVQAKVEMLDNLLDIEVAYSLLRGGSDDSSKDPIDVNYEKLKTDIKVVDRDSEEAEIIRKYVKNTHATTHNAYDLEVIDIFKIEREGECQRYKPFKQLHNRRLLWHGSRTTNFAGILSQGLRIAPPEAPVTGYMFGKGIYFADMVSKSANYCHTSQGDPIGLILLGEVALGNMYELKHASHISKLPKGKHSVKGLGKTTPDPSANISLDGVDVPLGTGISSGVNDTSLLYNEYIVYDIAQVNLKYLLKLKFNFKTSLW

MV4-11 = experiment: Antiproliferative activity against human MV4-11 cells assessed as reduction in cell viability incubated for 72 hrs by MTS assay; format: functional, cell-based; conditions: MV4-11, 72 h
[6] = Half life in Sprague-Dawley rat at 20 mg/kg, po by LC-MS/MS analysis; format: ADME, organism-based; conditions: in vivo
[7] = AUC (0 to t) in Sprague-Dawley rat at 20 mg/kg, po by LC-MS/MS analysis; format: ADME, organism-based; conditions: in vivo
[8] = biological target: T1, Serine/threonine-protein kinase Chk1 (Homo sapiens, UniProt O14757); experiment: Inhibition of CHK1 (unknown origin)
T1 sequence (O14757 whole entry): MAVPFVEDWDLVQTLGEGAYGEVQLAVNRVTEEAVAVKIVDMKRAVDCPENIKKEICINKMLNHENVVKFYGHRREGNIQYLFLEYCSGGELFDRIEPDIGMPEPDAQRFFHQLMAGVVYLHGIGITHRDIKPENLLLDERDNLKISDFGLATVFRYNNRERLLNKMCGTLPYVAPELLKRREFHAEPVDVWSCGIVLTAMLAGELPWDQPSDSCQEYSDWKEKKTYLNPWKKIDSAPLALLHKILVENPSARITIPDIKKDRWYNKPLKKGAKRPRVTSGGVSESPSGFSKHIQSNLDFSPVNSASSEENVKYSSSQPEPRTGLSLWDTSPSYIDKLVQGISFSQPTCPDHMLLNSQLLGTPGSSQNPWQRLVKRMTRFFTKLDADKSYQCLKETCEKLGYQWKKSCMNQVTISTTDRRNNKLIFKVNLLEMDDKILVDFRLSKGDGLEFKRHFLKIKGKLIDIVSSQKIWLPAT

[9] = biological target: T2, DNA repair protein RAD51 homolog 1 (Homo sapiens, UniProt Q06609); experiment: Inhibition of RAD51 (unknown origin)
T2 sequence (Q06609 whole entry): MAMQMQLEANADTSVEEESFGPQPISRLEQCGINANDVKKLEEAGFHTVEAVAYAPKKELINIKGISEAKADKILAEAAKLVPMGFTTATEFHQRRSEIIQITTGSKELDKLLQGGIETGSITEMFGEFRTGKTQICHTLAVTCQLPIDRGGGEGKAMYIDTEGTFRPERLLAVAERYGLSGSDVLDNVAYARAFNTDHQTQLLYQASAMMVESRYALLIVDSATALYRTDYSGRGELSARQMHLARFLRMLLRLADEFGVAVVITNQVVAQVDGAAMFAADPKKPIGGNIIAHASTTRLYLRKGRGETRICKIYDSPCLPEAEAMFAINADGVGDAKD

[10] = biological target: Serine/threonine-protein kinase VRK2 (Homo sapiens, UniProt Q86Y07); experiment: Inhibition of VRK2 (14 to 335 residues) (unknown origin) extracted from Escherichia coli BL21 (DE3)-R3 cells
Chain of Serine/threonine-protein kinase VRK2 (Q86Y07 whole entry, the tested form may be a part): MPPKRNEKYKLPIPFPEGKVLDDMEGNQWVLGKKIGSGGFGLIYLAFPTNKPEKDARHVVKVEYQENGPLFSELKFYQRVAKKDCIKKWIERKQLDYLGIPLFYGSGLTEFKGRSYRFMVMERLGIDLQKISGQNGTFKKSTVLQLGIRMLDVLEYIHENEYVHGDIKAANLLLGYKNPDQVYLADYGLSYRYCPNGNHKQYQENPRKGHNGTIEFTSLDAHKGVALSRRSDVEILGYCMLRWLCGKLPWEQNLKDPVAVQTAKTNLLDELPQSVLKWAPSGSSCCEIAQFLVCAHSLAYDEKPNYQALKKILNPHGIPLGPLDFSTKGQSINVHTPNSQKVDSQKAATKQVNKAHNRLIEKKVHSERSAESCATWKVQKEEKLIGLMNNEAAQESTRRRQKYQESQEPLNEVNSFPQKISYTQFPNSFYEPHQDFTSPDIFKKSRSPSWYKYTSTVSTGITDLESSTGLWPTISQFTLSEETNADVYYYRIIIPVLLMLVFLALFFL

[11] = biological target: Serine-protein kinase ATM (Homo sapiens, UniProt Q13315); experiment: Inhibition of ATM (unknown origin)
[12] = biological target: Serine/threonine-protein kinase mTOR (Homo sapiens, UniProt P42345); experiment: Inhibition of human mTOR
MDA-MB-436 = experiment: Antiproliferative activity against human MDA-MB-436 cells assessed as reduction in cell viability; format: functional, cell-based

pIC50 [1]: 5.51
Structure (SMILES): COc1cccc(NC(=O)c2cc(-c3ccc(/C=C4\C(=O)N(c5cccc(C(=O)O)c5)N=C4C)o3)ccc2Cl)c1

pKi [3]: 10.30
Structure (SMILES): Cc1cc2cc(C(=O)N(Cc3ccc(C(F)(F)F)cn3)[C@@H]3CCCc4cn[nH]c43)ccc2nc1N
pIC50 [2]: 8.00

pIC50 [4]: 9.00
Structure (SMILES): C[C@@H]1COCCN1c1nc(-c2ccnn2C)c2c(n1)c(-c1ccn[nH]1)nn2C

pIC50 [5]: 7.64
Structure (SMILES): Cc1ccoc1C(=O)N1CCCN(C(=O)c2ccc(-c3nc4c(C(N)=O)cccc4[nH]3)cc2)CC1

pIC50 [1]: 8.40
Structure (SMILES): COC1/C=C/Cc2cnc3cc(C)c(cn23)Nc2ncc3c(n2)n(c(=O)n3C)CC1 (stereo unspecified)

pIC50 (MV4-11): 7.46 | half-life [6]: 5.3 h | AUCt ([7]; po, 20 mg/kg): 1370 ng·h/mL
Structure (SMILES): Cn1cc(-c2cnc(Nc3ccc(C#N)nc3)nc2N[C@H]2CCCNC2)cn1

pIC50 [1]: 8.40
Structure (SMILES): Cc1cc2ncc3n2cc1Nc1ncc2c(n1)n(c(=O)n2C)CCCCC3

pIC50 [1]: 6.30
Structure (SMILES): COc1cccc(NC(=O)c2cc(-c3ccc(CC4C(=O)N(c5cccc(C(=O)O)c5)N=C4C)o3)ccc2Cl)c1 (stereo unspecified)

pIC50 [1]: 10.10
Structure (SMILES): Cc1cc(C(N)=O)ccc1Nc1ncc2c(n1)n(C1CCOCC1)c(=O)n2C

Structure (SMILES): Nc1nc2cc(F)c(C(=O)N(Cc3ccc(C(F)(F)F)cn3)C34CC(C3)C4)cc2c2c1COC2
pIC50 [2]: 8.10

AUC(0-t) ([7]; Sprague-Dawley): 10700 ng·h/mL | pIC50 [8]: 8.37
Structure (SMILES): N#Cc1ncc(Nc2ncc(-c3ccccc3)s2)cc1N[C@@H]1CCNC1

pIC50 [9]: 5.37
Structure (SMILES): O=c1nc(/C=C/c2cccnc2)n(Cc2ccccc2)c2ccccc12

pIC50 [1]: 6.96
Structure (SMILES): COc1cccc(NC(=O)c2cc(-c3ccc(CC4C(=O)N(c5cccc(C(=O)O)c5)N=C4C(F)(F)F)o3)ccc2Cl)c1 (stereo unspecified)

pIC50 [10]: 6.71
Structure (SMILES): CC(C)CCN1c2nc(Nc3cc(F)c(O)c(F)c3)ncc2N(C)C(=O)[C@@H]1C

pIC50 [4]: 7.80
Structure (SMILES): C[C@@H]1COC[C@H]2COc3c(nc(-c4ccnc5[nH]ccc45)nc3C(C)(C)C#N)N21

pIC50 [1]: 6.62
Structure (SMILES): COc1cccc(NC(=O)c2cc(-c3ccc(CC4C(=O)N(c5cccc(-c6nnn[nH]6)c5)N=C4C)o3)ccc2Cl)c1 (stereo unspecified)

pIC50 [11]: 9.35
Structure (SMILES): Cn1c(=O)n2c3ccccc3oc3c(-c4ccc(OCCCN5CCCCC5)nc4)c(F)cc4ncc1c2c43

pIC50 [9]: 6.14
Structure (SMILES): O=c1nc(/C=C/c2cccnc2)n(Cc2ccc(I)cc2)c2ccccc12

pIC50 [4]: 9.00 | pIC50 [12]: 6.92
Structure (SMILES): C[C@@H]1COCCN1c1cc([C@]2(O)C[C@H]3CC[C@@H](C2)O3)c2cnn(-c3cc[nH]n3)c2n1 [CAMONSERTIB]

pIC50 [11]: 6.32
Structure (SMILES): COc1cc2ncn(-c3cc(OCc4ccccc4C(F)(F)F)c(C(N)=O)s3)c2cc1OC [GW843682X]

pIC50 (MDA-MB-436): 4.62
Structure (SMILES): O=C(c1cc(Cc2n[nH]c(=O)c3ccccc23)ccc1F)N1CCN(C(=O)C2CC2)CC1 [OLAPARIB]
